Data published in US11261189B2, “Substituted 2,4 diamino-quinoline as new medicament for fibrosis, autophagy and cathepsins B (CTSB), L (CTSL) and D (CTSD) related diseases” (Genoscience Pharma, priority 2018, dated 2022).
Where a name gives a salt, the structure may show the parent alone.

What was measured:
cathepsin B (CTSB) = target: T1, cathepsin B (CTSB) (Homo sapiens, UniProt P07858); experiment: Cathepsin B (CTSB) catalytic activity in lysates of treated HepG2 cells (Z-RR-AMC substrate); assay type: cell-based; details: for CTSB activity versus NT: 6 hours of treatment
T1 construct: endogenous in cells; host or cells: HepG2
Experimental: (§1) Lysosomal functions was investigated in a hepatocellular carcinoma (HCC) cell line HepG2 after 6 hours and 24 hours of treatment with compound 2-3 (the hydrochloride salt form of compound 2-2) using functional assays of some lysosomal enzymes activity: two cysteine proteinases: cathepsin B (CTSB) and cathepsin L (CTSL), and one aspartic proteinase: cathepsin D (CTSD). Two sets of three concentrations of compound 2-3 (1 μM, 2 μM, and 4 μM for 6 hours, and 0.5 μM, 1 μM and 2 μM for 24 hours) were tested at least in triplicate and four independent experiments were performed. Salinomycin (7.5 μM for 6 hours and 24 hours) was used as a positive control.
(§2) The HepG2 cell line was maintained in DMEM (Dulbecco's Modified Eagle Media) high glucose (Cat #L0103-500, Dutscher) containing 1% penicillin-streptomycin (Cat #P06-07100, Dutscher) and 10% FBS (Fetal Bovine Serum) (Cat #11543407, Life Technologies). Cells were cultured at 37° C. with 5% CO2.
(§3) The day before the experiment, 6-well plates (Cat #353046, Dutscher) with 250,000 cells in 2.7 mL of medium per well were prepared.
(§4) Compound 2-3 was dissolved with filtrated H2O mQ to make a 10 mM stock solution and serial working solutions (10× solutions) were prepared with the diluent (=culture medium with 0.4% H2O mQ) at 5 μM, 10 μM, 20 μM and 40 μM: the “dilution 1” is made from the 10 mM stock solution in the culture medium and the following serial dilutions were made in the diluent to maintain a constant percentage of H2O.
Salinomycin [CAS 53003-10-4] was used as positive control and was dissolved with methanol to make a 10 mM stock solution and a 10× solution at 75 μM was prepared with the culture medium.
300 μL of compound 2-3 10× solutions (solutions at 10 μM, 20 μM and 40 μM for 6 hours of treatment and solutions at 5 μM, 10 μM and 20 μM for 24 hours of treatment) or 300 μL of diluent (=non-treated (NT) condition) or 300 μL of Salinomycin 10× solution were dispensed in the appropriate wells (4 wells/condition). After cells treatment, 6-well plates were returned to incubator for 6 hours or 24 hours.
After 6 hours or 24 hours of cells treatment, the medium was removed from each well. The cells were carefully rinsed with PBS (phosphate-buffered saline, Cat #L0615-500, Dutscher) and detached with 500 μL per well of a trypsin solution. After 5 min of trypsin (Cat #L0930-100, Dutscher) incubation at 37° C., 800 μL of medium was added per well and transferred to a 1.5 mL tube. Then, 800 μL of PBS was used to rinse each well and the corresponding solution was pooled in each corresponding 1.5 mL tube. […] Total protein concentration was assessed using the Bradford reagent (Cat #B6916-500ML, Sigma-Aldrich) and cellular lysates were stored at −80° C. until catalytic activity measurement. […]

cathepsin D (CTSD) = target: T2, cathepsin D (CTSD) (Homo sapiens, UniProt P07339); experiment: Cathepsin D (CTSD) peptidase activity in lysates of treated HepG2 cells (MOCAc quenched fluorogenic substrate); assay type: cell-based
T2 construct: cell lysates (1 μg of total proteins) were pre-incubated with citrate buffer pH 4.0; endogenous in cells; host or cells: HepG2
T2 sequence (P07339 65-412): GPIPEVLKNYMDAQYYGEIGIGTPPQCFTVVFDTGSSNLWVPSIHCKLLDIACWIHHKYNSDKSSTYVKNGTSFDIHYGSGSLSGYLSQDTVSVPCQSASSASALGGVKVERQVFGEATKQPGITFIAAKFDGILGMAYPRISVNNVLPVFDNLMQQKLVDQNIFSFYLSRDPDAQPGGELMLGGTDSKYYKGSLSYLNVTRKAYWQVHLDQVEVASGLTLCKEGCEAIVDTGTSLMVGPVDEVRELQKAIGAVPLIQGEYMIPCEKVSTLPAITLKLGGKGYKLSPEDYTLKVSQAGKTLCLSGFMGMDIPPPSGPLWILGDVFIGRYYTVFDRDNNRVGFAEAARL
Experimental: as §1, §2, §3, §4
Salinomycin [CAS 53003-10-4] was used as positive control and was dissolved with methanol to make a 10 mM stock solution and a 10× solution at 75 μM was prepared with the culture medium. […]
After 6 hours or 24 hours of cells treatment, the medium was removed from each well. […] Total protein concentration was assessed using the Bradford reagent (Cat #B6916-500ML, Sigma-Aldrich) and cellular lysates were stored at −80° C. until catalytic activity measurement. […]

CC(C)(C)NC1CCN(c2cc(NCc3ccc(Cl)cc3)nc3ccccc23)CC1 [2-3, 2-(4-chlorobenzylamino)-4-(4-tert-butylaminopiperidin-1-yl)-quinoline Hydrochloride Salt]
CTSB activity versus NT (cathepsin B (CTSB); HepG2, 2 μM): 75.4% | CTSB activity versus NT (cathepsin B (CTSB); HepG2, 4 μM): 54.0% | inhibition of cathepsin B (CTSB) compare to the control (cathepsin B (CTSB); HepG2, 2 μM, 4 μM for 6 hours and 2 μM for 24 hours, p<0.05): statistically significant | CTSD activity versus NT (cathepsin D (CTSD); HepG2, 4 μM, 6 hours of treatment): 60.6% | inhibition of cathepsin D (CTSD) compare to the control (cathepsin D (CTSD); HepG2, 4 μM for 6 hours and 2 μM for 24 hours, p<0.05): statistically significant
